Experimental data reported in the supplement of paper PMC10307832.

What was measured:
Assay in all cases: relative viability (nuclei count vs DMSO), 5 days (fraction); higher = more cells survive
HCC-44 = tested on: HCC-44
In short: (§1)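 Lung cancer cell lines were pin-tool dosed in 1536-well plates on the day after seeding, with either a lone drug or a fixed anchor-drug dose plus five library-drug doses (not always all listed) in √10 steps. Nuclei were counted on 4× images after 5 days. Relative viability is the ratio of treated-well to vehicle-well nuclei counts, with each value a median of duplicate plates.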

UMC-11 = tested on: UMC-11
In short: as §1

COR-L23 = tested on: COR-L23
In short: as §1

NCI-H2126 = tested on: NCI-H2126
In short: as §1

NCI-H1651 = tested on: NCI-H1651
In short: as §1

HOP-62 = tested on: HOP-62
In short: as §1

PC-14 = tested on: PC-14
In short: as §1

HCC-15 = tested on: HCC-15
In short: as §1

NCI-H358 = tested on: NCI-H358
In short: as §1

LC-2-ad = tested on: LC-2-ad
In short: as §1

NCI-H650 = tested on: NCI-H650
In short: as §1

LU99A = tested on: LU99A
In short: as §1

NCI-H2347 = tested on: NCI-H2347
In short: as §1

NCI-H1355 = tested on: NCI-H1355
In short: as §1

EPLC-272H = tested on: EPLC-272H
In short: as §1

HARA = tested on: HARA
In short: as §1

SW 1573 = tested on: SW 1573
In short: as §1

ABC-1 = tested on: ABC-1
In short: as §1

NCI-H1993 = tested on: NCI-H1993
In short: as §1

NCI-H2023 = tested on: NCI-H2023
In short: as §1

NCI-H2085 = tested on: NCI-H2085
In short: as §1

NCI-H838 = tested on: NCI-H838
In short: as §1

NCI-H1915 = tested on: NCI-H1915
In short: as §1

Compound: CCN(CC)CCCCNc1ncc2cc(-c3cc(OC)cc(OC)c3)c(NC(=O)NC(C)(C)C)nc2n1 + Nc1ncn([C@H]2C[C@H](O)[C@@H](CO)O2)c(=O)n1 [Decitabine] (partner 2 µM)
- relative viability (HCC-44; first compound 0.01 µM): 0.944
- relative viability (HCC-44; first compound 0.03162 µM): 0.915
- relative viability (HCC-44; first compound 0.1 µM): 1.02
- relative viability (HCC-44; first compound 0.3162 µM): 0.949
- relative viability (HCC-44; first compound 1 µM): 0.979
- relative viability (UMC-11; first compound 0.01 µM): 0.724
- relative viability (UMC-11; first compound 0.03162 µM): 0.615
- relative viability (UMC-11; first compound 0.1 µM): 0.661
- relative viability (UMC-11; first compound 0.3162 µM): 0.592
- relative viability (UMC-11; first compound 1 µM): 0.592
- relative viability (COR-L23; first compound 0.01 µM): 0.4
- relative viability (COR-L23; first compound 0.03162 µM): 0.445
- relative viability (COR-L23; first compound 0.1 µM): 0.461
- relative viability (COR-L23; first compound 0.3162 µM): 0.442
- relative viability (COR-L23; first compound 1 µM): 0.43
- relative viability (NCI-H2126; first compound 0.01 µM): 0.555
- relative viability (NCI-H2126; first compound 0.03162 µM): 0.568
- relative viability (NCI-H2126; first compound 0.1 µM): 0.556
- relative viability (NCI-H2126; first compound 0.3162 µM): 0.603
- relative viability (NCI-H2126; first compound 1 µM): 0.63
- relative viability (NCI-H1651; first compound 0.01 µM): 0.625
- relative viability (NCI-H1651; first compound 0.03162 µM): 0.68
- relative viability (NCI-H1651; first compound 0.1 µM): 0.63
- relative viability (NCI-H1651; first compound 0.3162 µM): 0.75
- relative viability (NCI-H1651; first compound 1 µM): 0.589
- relative viability (HOP-62; first compound 0.01 µM): 0.243
- relative viability (HOP-62; first compound 0.03162 µM): 0.207
- relative viability (HOP-62; first compound 0.1 µM): 0.208
- relative viability (HOP-62; first compound 0.3162 µM): 0.207
- relative viability (HOP-62; first compound 1 µM): 0.268
- relative viability (PC-14; first compound 0.01 µM): 0.239
- relative viability (PC-14; first compound 0.03162 µM): 0.298
- relative viability (PC-14; first compound 0.1 µM): 0.262
- relative viability (PC-14; first compound 0.3162 µM): 0.249
- relative viability (PC-14; first compound 1 µM): 0.228
- relative viability (HCC-15; first compound 0.01 µM): 0.691
- relative viability (HCC-15; first compound 0.03162 µM): 0.635
- relative viability (HCC-15; first compound 0.1 µM): 0.655
- relative viability (HCC-15; first compound 0.3162 µM): 0.68
- relative viability (HCC-15; first compound 1 µM): 0.51
- relative viability (NCI-H358; first compound 0.01 µM): 0.199
- relative viability (NCI-H358; first compound 0.03162 µM): 0.235
- relative viability (NCI-H358; first compound 0.1 µM): 0.227
- relative viability (NCI-H358; first compound 0.3162 µM): 0.24
- relative viability (NCI-H358; first compound 1 µM): 0.19
- relative viability (LC-2-ad; first compound 0.01 µM): 0.827
- relative viability (LC-2-ad; first compound 0.03162 µM): 0.81
- relative viability (LC-2-ad; first compound 0.1 µM): 0.823
- relative viability (LC-2-ad; first compound 0.3162 µM): 0.852
- relative viability (LC-2-ad; first compound 1 µM): 0.775
- relative viability (NCI-H650; first compound 0.01 µM): 0.14
- relative viability (NCI-H650; first compound 0.03162 µM): 0.272
- relative viability (NCI-H650; first compound 0.1 µM): 0.33
- relative viability (NCI-H650; first compound 0.3162 µM): 0.332
- relative viability (NCI-H650; first compound 1 µM): 0.326
- relative viability (LU99A; first compound 0.01 µM): 1.01
- relative viability (LU99A; first compound 0.03162 µM): 0.82
- relative viability (LU99A; first compound 0.1 µM): 0.861
- relative viability (LU99A; first compound 0.3162 µM): 0.944
- relative viability (LU99A; first compound 1 µM): 0.79
- relative viability (NCI-H2347; first compound 0.01 µM): 0.573
- relative viability (NCI-H2347; first compound 0.03162 µM): 0.62
- relative viability (NCI-H2347; first compound 0.1 µM): 0.623
- relative viability (NCI-H2347; first compound 0.3162 µM): 0.626
- relative viability (NCI-H2347; first compound 1 µM): 0.578
- relative viability (NCI-H1355; first compound 0.01 µM): 0.364
- relative viability (NCI-H1355; first compound 0.03162 µM): 0.368
- relative viability (NCI-H1355; first compound 0.1 µM): 0.36
- relative viability (NCI-H1355; first compound 0.3162 µM): 0.396
- relative viability (NCI-H1355; first compound 1 µM): 0.339
- relative viability (EPLC-272H; first compound 0.01 µM): 0.384
- relative viability (EPLC-272H; first compound 0.1 µM): 0.359
- relative viability (EPLC-272H; first compound 0.3162 µM): 0.378
- relative viability (EPLC-272H; first compound 1 µM): 0.331
- relative viability (HARA; first compound 0.01 µM): 0.625
- relative viability (HARA; first compound 0.03162 µM): 0.557
- relative viability (HARA; first compound 0.1 µM): 0.636
- relative viability (HARA; first compound 0.3162 µM): 0.649
- relative viability (HARA; first compound 1 µM): 0.317
- relative viability (SW 1573; first compound 0.01 µM): 0.441
- relative viability (SW 1573; first compound 0.03162 µM): 0.528
- relative viability (SW 1573; first compound 0.1 µM): 0.583
- relative viability (SW 1573; first compound 0.3162 µM): 0.591
- relative viability (SW 1573; first compound 1 µM): 0.435
- relative viability (ABC-1; first compound 0.03162 µM): 1.17
- relative viability (ABC-1; first compound 0.1 µM): 1.32
- relative viability (ABC-1; first compound 0.3162 µM): 1.06
- relative viability (ABC-1; first compound 1 µM): 1.05
- relative viability (NCI-H1993; first compound 0.01 µM): 0.671
- relative viability (NCI-H1993; first compound 0.03162 µM): 0.584
- relative viability (NCI-H1993; first compound 0.1 µM): 0.508
- relative viability (NCI-H1993; first compound 0.3162 µM): 0.757
- relative viability (NCI-H1993; first compound 1 µM): 0.589
- relative viability (NCI-H2023; first compound 0.01 µM): 0.221
- relative viability (NCI-H2023; first compound 0.03162 µM): 0.268
- relative viability (NCI-H2023; first compound 0.1 µM): 0.232
- relative viability (NCI-H2023; first compound 0.3162 µM): 0.236
- relative viability (NCI-H2023; first compound 1 µM): 0.206
- relative viability (NCI-H2085; first compound 0.01 µM): 0.559
- relative viability (NCI-H2085; first compound 0.03162 µM): 0.603
- relative viability (NCI-H2085; first compound 0.1 µM): 0.564
- relative viability (NCI-H2085; first compound 0.3162 µM): 0.533
- relative viability (NCI-H2085; first compound 1 µM): 0.549
- relative viability (NCI-H838; first compound 0.01 µM): 0.481
- relative viability (NCI-H838; first compound 0.03162 µM): 0.484
- relative viability (NCI-H838; first compound 0.1 µM): 0.428
- relative viability (NCI-H838; first compound 0.3162 µM): 0.422
- relative viability (NCI-H838; first compound 1 µM): 0.418
- relative viability (NCI-H1915; first compound 0.01 µM): 0.24
- relative viability (NCI-H1915; first compound 0.03162 µM): 0.243
- relative viability (NCI-H1915; first compound 0.1 µM): 0.256
- relative viability (NCI-H1915; first compound 0.3162 µM): 0.242
- relative viability (NCI-H1915; first compound 1 µM): 0.266
